These compounds were tested against T1, human CB1 receptor (Homo sapiens, UniProt P21554) (assay: aequorin luminescence agonist assay, CHO-K1 cells). Details: read-out: EC50 (95% CI).
T1 construct: gene CNR1; recombinant receptor in CHO-K1 AequoScreen cells (aequorin luminescence line, Revvity ES-110-AF)
Format: cell-based
Excerpt: aequorin luminescence agonist assay, CHO-K1 cells on human CB1 receptor

T1 sequence (P21554 whole entry): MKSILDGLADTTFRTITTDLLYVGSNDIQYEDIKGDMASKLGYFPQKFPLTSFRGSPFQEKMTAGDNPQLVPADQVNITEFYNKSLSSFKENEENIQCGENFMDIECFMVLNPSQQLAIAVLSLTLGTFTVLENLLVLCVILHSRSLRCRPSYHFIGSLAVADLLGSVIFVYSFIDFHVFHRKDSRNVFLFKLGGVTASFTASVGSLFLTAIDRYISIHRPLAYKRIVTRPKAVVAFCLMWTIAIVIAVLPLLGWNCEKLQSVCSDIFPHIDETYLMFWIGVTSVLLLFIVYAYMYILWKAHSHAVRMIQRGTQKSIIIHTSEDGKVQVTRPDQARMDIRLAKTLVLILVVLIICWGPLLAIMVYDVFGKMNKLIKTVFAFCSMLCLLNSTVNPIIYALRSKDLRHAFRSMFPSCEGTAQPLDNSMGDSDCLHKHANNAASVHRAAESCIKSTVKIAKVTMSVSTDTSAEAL

Point of comparison: `CCCCCCCc1cc(O)c2c(c1)OC(C)(C)[C@@H]1CC[C@@H](C)C[C@@H]21` [(9R)-HHC-P], EC50 44.4 nM. Against it:
- CCCCCc1cc(O)c2c(c1)OC(C)(C)[C@@H]1CC[C@@H](C)C[C@@H]21 [(9R)-HHC] — 2.3-fold higher, 101 nM
- CCCCCc1cc(OC(C)=O)c2c(c1)OC(C)(C)[C@@H]1CC[C@@H](C)C[C@@H]21 [(9R)-HHC-O] — higher, > 33000 nM
- CCCCCc1cc(O)c2c(c1)OC(C)(C)[C@@H]1CC[C@H](C)C[C@@H]21 [(9S)-HHC] — 27-fold higher, 1190 nM
- CCCCCCCc1cc(O)c2c(c1)OC(C)(C)[C@@H]1CC[C@H](C)C[C@@H]21 [(9S)-HHC-P] — 3-fold higher, 134 nM
- CCCCCn1cc(C(=O)c2cccc3ccccc23)c2ccccc21 [JWH-018, reference compound] — 2-fold lower, 22.5 nM

These compounds were tested against T1, human CB1 receptor (assay: aequorin luminescence agonist assay, CHO-K1 cells). Details: agonist mode, tested up to 60 uM; silanized plastic, glass vials; 0.05% BSA assay medium.
Format: cell-based

For `CCCCCc1cc(OC(C)=O)c2c(c1)OC(C)(C)[C@@H]1CC[C@H](C)C[C@@H]21` [(9S)-HHC-O], the EC50 n.d. was “(9S)‐HHC‐O did not activate the CB1 receptor”.
